Results on 16 compounds are retold here after patent US9592224B2, “Substituted benzothiazoles and therapeutic uses thereof for the treatment of human diseases” (CONSEJO SUPERIOR DE INVESTIGACIONES CIENTÍFICAS, priority 2013, dated 2017).

The target of assay [1] is T1, recombinant human enzyme CK-1ε (Homo sapiens, UniProt P49674).
T1 construct: purchased Invitrogen
Put plainly: Enzyme inhibition assay, Luminometer Kinase-GLO method, CK-1ε. The conditions noted are these: for IC50: casein substrate, 4 μM ATP, 60 minutes at 30° C., read-out: Inhibitory Concentration 50 (IC50) CK-1ε. It is filed as biochemical. On the procedure:
(§1) Enzyme inhibition assays were performed using the Luminometer Kinase-GLO® method. Recombinant human enzyme CK-1δ was purchased from Millipore Iberica SAU and recombinant human enzyme CK-1ε was purchased from Invitrogen. The phosphorylation substration chosen was casein. The Luminescent Kinase Kit (catalogue no. V6711) was obtained from Promega. ATP and other reagents were purchased from Sigma-Aldrich (St. Louis, Mo.).
(§2) The assays were conducted in buffer using 96-well plates. In a typical assay: 10 μL of the test compound (dissolved in dimethylsulfoxide at a concentration of 1 mM and, in turn, dissolved in buffer to the required concentration for the experiment) and 10 μL (16 ng) of the CK-1δ enzyme or 10 μL (50 ng) of the CK-1ε enzyme row were added to each well followed by 20 μL of buffer containing 0.1% casein as substrate and 4 μM of ATP. The assay buffer contained: 50 mM HEPES, pH 7.5; 0.01% Brij-35; 10 mM MgCl2; 1 mM EGTA and 0.01% NaN3. […] After incubating for 60 minutes at 30° C., the enzymatic reaction was stopped using 40 μL of Kinase-GLO® reagent. Luminescence was measured after ten minutes using a FLUOstar Optima (BMG Labtechnologies GmbH, Offenburg, Germany) multimode reader. The activity was proportional to the difference between the total and consumed ATP. Inhibition activities were calculated in accordance with the maximum activity measured in the absence of inhibitor. IC50 is defined as the concentration of each compound that reduces enzyme activity by 50% with respect to that obtained without inhibitor.

Assay [2] addresses T2, recombinant human enzyme CK-1δ (Homo sapiens, UniProt P48730).
T2 construct: purchased Millipore Iberica SAU
Put plainly: Enzyme inhibition assay, Luminometer Kinase-GLO method, CK-1δ. The class given is biochemical. The conditions noted are these: for IC50: casein substrate, 4 μM ATP, 60 minutes at 30° C., read-out: Inhibitory Concentration 50 (IC50) CK-1δ. The procedure:
as §1, §2
For orientation: Kinase-Glo reads ATP consumption through a luciferase reaction.

T1 sequence (P49674 whole entry): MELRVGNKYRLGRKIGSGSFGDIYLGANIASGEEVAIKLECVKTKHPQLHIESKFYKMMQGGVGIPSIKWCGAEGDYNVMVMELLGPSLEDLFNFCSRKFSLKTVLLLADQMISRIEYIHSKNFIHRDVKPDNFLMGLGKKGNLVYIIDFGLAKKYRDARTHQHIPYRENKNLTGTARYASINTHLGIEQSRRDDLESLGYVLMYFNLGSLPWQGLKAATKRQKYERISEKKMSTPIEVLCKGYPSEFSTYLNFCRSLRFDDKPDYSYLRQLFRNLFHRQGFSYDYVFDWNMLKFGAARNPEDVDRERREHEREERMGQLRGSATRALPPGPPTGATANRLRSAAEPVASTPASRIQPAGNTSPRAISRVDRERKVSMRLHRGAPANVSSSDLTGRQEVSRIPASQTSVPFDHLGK
T2 sequence (P48730 whole entry): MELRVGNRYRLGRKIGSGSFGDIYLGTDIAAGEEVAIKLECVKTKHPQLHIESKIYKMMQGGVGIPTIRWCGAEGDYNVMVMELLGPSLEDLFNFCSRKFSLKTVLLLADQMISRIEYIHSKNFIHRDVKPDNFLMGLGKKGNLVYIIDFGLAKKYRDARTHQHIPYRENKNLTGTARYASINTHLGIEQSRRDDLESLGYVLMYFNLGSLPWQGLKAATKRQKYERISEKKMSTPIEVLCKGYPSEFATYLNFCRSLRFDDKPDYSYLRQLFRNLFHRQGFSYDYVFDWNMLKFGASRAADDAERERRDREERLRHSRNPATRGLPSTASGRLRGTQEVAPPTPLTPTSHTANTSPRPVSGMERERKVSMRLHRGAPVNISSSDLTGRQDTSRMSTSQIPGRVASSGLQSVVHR

One may read the inhibition as the drop in the measured response relative to a control, in per cent. Take `O=C(CCc1cccc(Cl)c1)Nc1nc2ccccc2s1` [Compound 47, N-(benzothiazole-2-yl)-3-(3-chlorophenyl)propanamide]: the inhibition at 10 µM in assay [1] was found to be 31%. Besides, the IC50 in assay [2] is 3580 nM.
For `COc1ccc2nc(NC(=O)Cc3cccc(Cl)c3)sc2c1` [Compound 22, N-(6-methoxybenzothiazole-2-yl)-2-(3-chlorophenyl)acetamide], the IC50 in assay [1] was determined as 3.73 µM; in assay [2] it was 530 nM.
With `CCNS(=O)(=O)c1ccc2nc(NC(=O)C(c3ccccc3)c3ccccc3)sc2c1` [Compound 42, N-(6-(N-ethylsulfamoyl)benzothiazole-2-yl)-2,2-diphenylacetamide], the inhibition at 10 µM in assay [1] and in assay [2] was 10% each time.
For the compound `O=C(CCc1ccccc1)Nc1nc2ccc([N+](=O)[O-])cc2s1` [Compound 17, N-(6-nitrobenzothiazole-2-yl)-3-phenylpropanamide], the results for the IC50 in assay [1] and in assay [2] were 9.4 µM and 570 nM, respectively.
With `COc1ccc2nc(NC(=O)Cc3ccc(Cl)c(Cl)c3)sc2c1` [Compound 53, N-(6-methoxybenzothiazole-2-yl)-2-(3,4-dichlorophenyl)acetamide], the IC50 in assay [1] turned out to be 16.5 µM; in assay [2] it was 1240 nM.
Take `CCOc1ccc2nc(NC(=O)Cc3ccc(Cl)c(Cl)c3)sc2c1` [Compound 54, N-(6-ethoxybenzothiazole-2-yl)-2-(3,4-dichlorophenyl)acetamide]: the IC50 in assay [1] was found to be 14.2 µM; in assay [2], 3430 nM.
As for `COc1ccc(OC)c(CC(=O)Nc2nc3ccc(C(F)(F)F)cc3s2)c1` [Compound 29, N-(6-trifluoromethylbenzothiazole-2-yl)-2-(2,5-dimethoxyphenyl)acetamide], the IC50 in assay [1] was 3.14 µM; in assay [2], 190 nM.
On the same counts, the results for `O=C(Nc1nc2ccc(C(F)(F)F)cc2s1)C(c1ccccc1)c1ccccc1` [Compound 15, N-(6-trifluoromethylbenzothiazole-2-yl)-2,2-diphenylacetamide] are 2.75 µM and 260 nM.
For the compound `COc1ccc(CC(=O)Nc2nc3ccc(Cl)cc3s2)cc1` [Compound 2, N-(6-chlorobenzothiazole-2-yl)-2-(4-methoxyphenyl)acetamide], the IC50 in assay [1] came to 0.5 µM; in assay [2], 70 nM.
As to `COc1cc(CC(=O)Nc2nc3ccc(OC(F)(F)F)cc3s2)cc(OC)c1OC` [Compound 11, N-(6-trifluoromethoxybenzothiazole-2-yl)-2-(3,4,5-trimethoxyphenyl)acetamide], the IC50 in assay [1] stood at 0.94 µM; in assay [2] it was 79 nM.
For the compound `CCOc1ccc2nc(NC(=O)Cc3cccc(OC)c3)sc2c1` [Compound 26, N-(6-ethoxybenzothiazole-2-yl)-2-(3-methoxyphenyl)acetamide], the figures for the IC50 in assay [1] and in assay [2] were 8.97 µM and 990 nM, respectively.
For `COc1ccccc1CC(=O)Nc1nc2ccc(OC(F)(F)F)cc2s1` [Compound 27, N-(6-trifluoromethoxybenzothiazole-2-yl)-2-(2-methoxyphenyl)acetamide], the IC50 in assay [1] came out at 7.39 µM; in assay [2], 620 nM.
On the same counts, the results for `O=C(Cc1ccc(Cl)c(Cl)c1)Nc1nc2ccc(OC(F)(F)F)cc2s1` [Compound 28, N-(6-trifluoromethoxybenzothiazole-2-yl)-2-(3,4-dichlorophenyl)acetamide] are 0.93 µM and 590 nM.
As for `CCOc1ccc2nc(NC(=O)Cc3ccccc3Cl)sc2c1` [Compound 50, N-(6-ethoxybenzothiazole-2-yl)-2-(2-chlorophenyl)acetamide], the inhibition at 10 µM in assay [1] came to 20%. Besides, in assay [2], the IC50 is 17400 nM.
In the case of `CCOc1ccc2nc(NC(=O)Cc3cc(OC)c(OC)c(OC)c3)sc2c1` [Compound 56, N-(6-ethoxybenzothiazole-2-yl)-2-(3,4,5-trimethoxyphenyl)acetamide], the IC50 in assay [1] was determined as 9.83 µM; in assay [2], 1430 nM.
With `CCOc1ccc2nc(NC(=O)Cc3cccc(Cl)c3)sc2c1` [Compound 48, N-(6-ethoxybenzothiazole-2-yl)-2-(3-chlorophenyl)acetamide], the results for the IC50 in assay [1] and in assay [2] were 9.75 µM and 1210 nM, respectively.
